Results taken from US9243270B2, “Method for producing metabolites from omeprazole using bacterial cytochrome P450, and composition for same” (priority 2012, dated 2016).
Entries after “also recorded” stand apart in the source; their conditions may differ.

B1: wild-type CYP102A1: bacterial cytochrome P450 BM3 (CYP102A1) from Bacillus megaterium, SEQ ID NO: 16 (protein)
chain: MTIKEMPQPKTFGELKNLPLLNTDKPVQALMKIADELGEIFKFEAPGRVTRYLSSQRLIKEACDESRFDKNLSQALKFVRDFAGDGLFTSWTHEKNWKKAHNILLPSFSQQAMKGYHAMMVDIAVQLVQKWERLNADEHIEVPEDMTRLTLDTIGLCGFNYRFNSFYRDQPHPFITSMVRALDEAMNKLQRANPDDPAYDENKRQFQEDIKVMNDLVDKIIADRKASGEQSDDLLTHMLNGKDPETGEPLDDENIRYQIITFLIAGHETTSGLLSFALYFLVKNPHVLQKAAEEAARVLVDPVPSYKQVKQLKYVGMVLNEALRLWPTAPAFSLYAKEDTVLGGEYPLEKGDELMVLIPQLHRDKTIWGDDVEEFRPERFENPSAIPQHAFKPFGNGQRACIGQQFALHEATLVLGMMLKHFDFEDHTNYELDIKETLTLKPEGFVVKAKSKKIPLGGIPSPSTEQSAKKVRKKAENAHNTPLLVLYGSNMGTAEGTARDLADIAMSKGFAPQVATLDSHAGNLPREGAVLIVTASYNGHPPDNAKQFVDWLDQASADEVKGVRYSVFGCGDKNWATTYQKVPAFIDETLAAKGAENIADRGEADASDDFEGTYEEWREHMWSDVAAYFNLDIENSEDNKSTLSLQFVDSAADMPLAKMHGAFSTNVVASKELQQPGSARSTRHLEIELPKEASYQEGDHLGVIPRNYEGIVNRVTARFGLDASQQIRLEAEEEKLAHLPLAKTVSVEELLQYVELQDPVTRTQLRAMAAKTVCPPHKVELEALLEKQAYKEQVLAKRLTMLELLEKYPACEMKFSEFIALLPSIRPRYYSISSSPRVDEKQASITVSVVSGEAWSGYGEYKGIASNYLAELQEGDTITCFISTPQSEFTLPKDPETPLIMVGPGTGVAPFRGFVQARKQLKEQGQSLGEAHLYFGCRSPHEDYLYQEELENAQSEGIITLHTAFSRMPNQPKTYVQHVMEQDGKKLIELLDQGAHFYICGDGSQMAPAVEATLMKSYADVHQVSEADARLWLQQLEEKGRYAKDVWAG

Tests used:
[1] = molecular target: human CYP2C19 (Homo sapiens, UniProt P33261); assay: Oxidation of omeprazole by human CYP2C19, metabolites by HPLC and LC-MS; type: in vitro ADME; settings: human CYP2C19, 100 μM omeprazole, NADPH-generating system, 37° C., 30 minutes
human CYP2C19, sequence (P33261 whole entry): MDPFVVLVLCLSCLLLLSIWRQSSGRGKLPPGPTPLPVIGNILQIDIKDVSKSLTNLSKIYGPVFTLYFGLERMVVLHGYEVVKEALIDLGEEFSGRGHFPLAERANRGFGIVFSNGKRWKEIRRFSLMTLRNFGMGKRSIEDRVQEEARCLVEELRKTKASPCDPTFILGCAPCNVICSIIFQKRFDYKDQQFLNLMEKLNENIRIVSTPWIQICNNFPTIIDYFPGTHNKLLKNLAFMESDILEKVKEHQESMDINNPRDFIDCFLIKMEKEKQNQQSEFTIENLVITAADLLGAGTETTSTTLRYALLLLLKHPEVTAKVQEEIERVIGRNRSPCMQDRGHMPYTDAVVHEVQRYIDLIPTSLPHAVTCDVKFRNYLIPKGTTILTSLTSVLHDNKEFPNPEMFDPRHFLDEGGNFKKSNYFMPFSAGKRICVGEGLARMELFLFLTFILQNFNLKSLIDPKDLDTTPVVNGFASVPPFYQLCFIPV
Procedure: (§1) CYP102A1 50 pmol and 100 μM substrates were put into 100 mM of a potassium phosphate buffer (pH 7.4) 0.25 me and were subjected to a typical steady state reaction. In order to initiate the reaction, an NADPH-generating system (final concentration: 10 mM glucose 6-phosphate, 0.5 mM NADP^+, and 1 IU yeast glucose 6-phosphate dehydrogenase per 1 me) was added. 20 mM omeprazole solution was prepared by DMSO, and diluted with an enzyme reaction solution so that an organic solvent has the final concentration of 1%(v/v) or less. For measuring an activity of human CYP2C19, 50 pmol P450, 100 pmol NADPH-P450 reductase (CPR), 100 pmol cytochrome b5 and 45 μM L-α-dilauroyl-sn-glycero-3-phosphocholine (DLPC) were used instead of 50 pmol CYP102A1. The reaction solution was reacted at 37 for 30 minutes, and the reaction was terminated by dichloromethane prepared in a cold state with twice amounts of ice.
(§2) The reaction mixture was centrifuged to remove the supernatant, the solvent thereof was evaporated under nitrogen gas (see Vickers et al., 1990), and the obtained mixture was analyzed by HPLC (see Piver et al., 2004). A sample (30 μl) was injected into Gemini C18 column (4.6 mm×150 mm, 5 μm, Phenomenex, Torrance, Calif.). 30% acetonitrile was used as a mobile phase.

[2] = tested on: CYP102A1 (P450 BM3); settings: bacterial wild-type CYP102A1 and mutants, 100 μM omeprazole, NADPH-generating system
Procedure: as §1, §2

[3] = Total turnover number (TTN) of omeprazole oxidation by CYP102A1 enzymes, HPLC; type: biochemical, Bacillus megaterium; settings: 0.1 mM to 2 mM omeprazole, 30 minutes up to 5 hours, NADPH-generating system
Procedure: 30% acetonitrile was used as a mobile phase.
It could be confirmed from the results of FIG. 5 that the turnover number of the wild-type CYP102A1, 17 kinds of mutants thereof, and 6 kinds of mutant kimeras varied at a large range. In addition, the total turnover number (TTNs) (mol product/mol catalyst) of the CYP102A1 mutant was investigated. In order to measure TTNs of the CYP102A1 mutant, 0.1 mM to 2 mM omeprazole was used, and the reaction was performed with an interval from 30 minutes up to 5 hours. The production rate of the omeprazole metabolite was determined by HPLC.

Molecule | main metabolites produced from omeprazole [1] | main product produced from omeprazole [2] | total turnover number (TTNs), activity towards omeprazole [3]
COc1ccc2[nH]c([S+]([O-])Cc3ncc(C)c(OC)c3C)nc2c1 (racemic) [omeprazole] | 3′-hydroxyomeprazole and 5′-hydroxyomeprazole | 5′-hydroxyomeprazole | 
B1 |  |  | the activity with respect to the omeprazole was hardly shown; also recorded: hardly had an activity with respect to omeprazole
